{"source": "paper PMC5218480", "about": "(PLoS ONE, 2017)", "test_system": "MV-4-11 cells", "experiment": "Gene expression microarray analysis (Affymetrix PrimeView) and GSEA", "format": "cell-based, human", "parameters": "RFU PODN (11730768_x_at) / Fold change /veh PODN (11730768_x_at) / RFU LINC00158 (11744669_a_at) / Fold change /veh LINC00158 (11744669_a_at) / RFU DUSP10 (11751237_a_at) / Fold change /veh DUSP10 (11751237_a_at) / RFU ID3 (11757404_x_at) / Fold change /veh ID3 (11757404_x_at) / RFU PLEKHG5 (11737974_s_at) / Fold change /veh PLEKHG5 (11737974_s_at) / RFU LRRC4B (11730491_at) / Fold change /veh LRRC4B (11730491_at) / RFU GIMAP4 (11747438_a_at) / Fold change /veh GIMAP4 (11747438_a_at) / RFU KRT8 (11758183_x_at) / Fold change /veh KRT8 (11758183_x_at) / RFU CNN1 (11734310_a_at) / Fold change /veh CNN1 (11734310_a_at) / RFU VPS37D (11726825_at) / Fold change /veh VPS37D (11726825_at) / RFU C10orf10 (11716522_x_at) / Fold change /veh C10orf10 (11716522_x_at) / RFU KIR2DL2 /// KIR2DL4 /// KIR2DL5A /// KIR2DL5B /// KIR2DS1 /// KIR2DS2 /// KIR2DS3 /// KIR2DS4 /// KIR3DL3 /// KIR3DL3 /// KIR3DS1 (11738374_at) / Fold change /veh KIR2DL2 /// KIR2DL4 /// KIR2DL5A /// KIR2DL5B /// KIR2DS1 /// KIR2DS2 /// KIR2DS3 /// KIR2DS4 /// KIR3DL3 /// KIR3DL3 /// KIR3DS1 (11738374_at) / RFU C1QL1 (11718748_at) / Fold change /veh C1QL1 (11718748_at) / RFU TMPRSS4 (11747572_a_at) / Fold change /veh TMPRSS4 (11747572_a_at) / RFU HAMP (11756126_x_at) / Fold change /veh HAMP (11756126_x_at) / RFU RNFT2 (11725882_a_at) / Fold change /veh RNFT2 (11725882_a_at) / RFU NR4A2 (11747474_a_at) / Fold change /veh NR4A2 (11747474_a_at) / RFU ABCC12 (11746883_a_at) / Fold change /veh ABCC12 (11746883_a_at) / RFU TMEM136 (11760407_x_at) / Fold change /veh TMEM136 (11760407_x_at) / RFU CLDN22 /// WWC2 (11732394_at) / Fold change /veh CLDN22 /// WWC2 (11732394_at) / RFU HLA-DPB1 (11760878_x_at) / Fold change /veh HLA-DPB1 (11760878_x_at) / RFU SPINT1 (11716480_a_at) / Fold change /veh SPINT1 (11716480_a_at) / RFU GAP43 (11754022_s_at) / Fold change /veh GAP43 (11754022_s_at) / RFU A4GNT (11735810_at) / Fold change /veh A4GNT (11735810_at) / RFU PRB3 (11715151_x_at) / Fold change /veh PRB3 (11715151_x_at) / RFU TUBB4B (11761932_at) / Fold change /veh TUBB4B (11761932_at) / RFU CAPN14 (11732068_a_at) / Fold change /veh CAPN14 (11732068_a_at) / RFU TMCC2 (11721928_a_at) / Fold change /veh TMCC2 (11721928_a_at) / RFU IRGQ (11745062_a_at) / Fold change /veh IRGQ (11745062_a_at) / RFU FAM174B (11720279_a_at) / Fold change /veh FAM174B (11720279_a_at) / RFU TMPRSS4 (11748680_a_at) / Fold change /veh TMPRSS4 (11748680_a_at) / RFU FAM212B (11763350_a_at) / Fold change /veh FAM212B (11763350_a_at) / RFU PLEKHG5 (11743358_a_at) / Fold change /veh PLEKHG5 (11743358_a_at) / RFU ZSCAN30 (11745921_a_at) / Fold change /veh ZSCAN30 (11745921_a_at) / RFU CMKLR1 (11741424_a_at) / Fold change /veh CMKLR1 (11741424_a_at) / RFU LOC101060620 /// MAPK8IP1 (11723275_at) / Fold change /veh LOC101060620 /// MAPK8IP1 (11723275_at) / RFU SPTSSB (11747773_x_at) / Fold change /veh SPTSSB (11747773_x_at) / RFU PRSS12 (11739890_at) / Fold change /veh PRSS12 (11739890_at) / RFU BIN1 (11741810_x_at) / Fold change /veh BIN1 (11741810_x_at) / RFU WNT11 (11732464_a_at) / Fold change /veh WNT11 (11732464_a_at) / RFU C10orf10 (11716521_a_at) / Fold change /veh C10orf10 (11716521_a_at) / RFU C5orf56 (11738089_at) / Fold change /veh C5orf56 (11738089_at) / RFU CYB561 (11721691_x_at) / Fold change /veh CYB561 (11721691_x_at) / RFU ANKRD19P (11752326_a_at) / Fold change /veh ANKRD19P (11752326_a_at) / RFU OR2T12 /// OR2T33 /// OR2T8 (11738714_s_at) / Fold change /veh OR2T12 /// OR2T33 /// OR2T8 (11738714_s_at) / RFU VCAN (11748164_a_at) / Fold change /veh VCAN (11748164_a_at) / RFU JSRP1 (11732532_at) / Fold change /veh JSRP1 (11732532_at) / RFU KRTAP10-11 (11738290_x_at) / Fold change /veh KRTAP10-11 (11738290_x_at) / RFU MYO3A (11730013_a_at) / Fold change /veh MYO3A (11730013_a_at) / RFU EBF3 (11725865_a_at) / Fold change /veh EBF3 (11725865_a_at) / RFU CAMK2N1 (11719241_x_at) / Fold change /veh CAMK2N1 (11719241_x_at) / RFU C5orf56 (11738088_a_at) / Fold change /veh C5orf56 (11738088_a_at) / RFU OLFML3 (11715873_a_at) / Fold change /veh OLFML3 (11715873_a_at) / RFU LOC100653217 /// NTM (11731650_a_at) / Fold change /veh LOC100653217 /// NTM (11731650_a_at) / RFU MAPK11 (11762145_a_at) / Fold change /veh MAPK11 (11762145_a_at) / RFU FIZ1 (11724087_x_at) / Fold change /veh FIZ1 (11724087_x_at) / RFU OASL (11726364_x_at) / Fold change /veh OASL (11726364_x_at) / RFU SOX15 (11748057_x_at) / Fold change /veh SOX15 (11748057_x_at) / RFU CD79A (11719716_a_at) / Fold change /veh CD79A (11719716_a_at) / RFU HIST1H1D (11736915_at) / Fold change /veh HIST1H1D (11736915_at) / RFU CASKIN2 (11723855_a_at) / Fold change /veh CASKIN2 (11723855_a_at) / RFU LOC730098 (11760151_x_at) / Fold change /veh LOC730098 (11760151_x_at) / RFU OR4N2 (11742367_at) / Fold change /veh OR4N2 (11742367_at) / RFU PRRT2 (11749266_a_at) / Fold change /veh PRRT2 (11749266_a_at) / RFU SNX32 (11753110_a_at) / Fold change /veh SNX32 (11753110_a_at) / RFU CDHR5 (11726645_a_at) / Fold change /veh CDHR5 (11726645_a_at) / RFU RCAN1 (11760418_a_at) / Fold change /veh RCAN1 (11760418_a_at) / RFU FAM167A (11723789_a_at) / Fold change /veh FAM167A (11723789_a_at) / RFU FAM26E (11764081_at) / Fold change /veh FAM26E (11764081_at) / RFU ISYNA1 (11749810_s_at) / Fold change /veh ISYNA1 (11749810_s_at) / RFU ACY1 (11761880_at) / Fold change /veh ACY1 (11761880_at) / RFU 11764098_at / Fold change /veh 11764098_at / RFU SAMD14 (11745864_x_at) / Fold change /veh SAMD14 (11745864_x_at) / RFU NPB (11741838_a_at) / Fold change /veh NPB (11741838_a_at) / RFU TMPRSS6 (11731388_a_at) / Fold change /veh TMPRSS6 (11731388_a_at) / RFU KRTAP10-2 (11738614_at) / Fold change /veh KRTAP10-2 (11738614_at) / RFU ARHGAP8 /// PRR5-ARHGAP8 (11727945_x_at) / Fold change /veh ARHGAP8 /// PRR5-ARHGAP8 (11727945_x_at) / RFU KRTAP5-7 /// NADSYN1 (11734609_at) / Fold change /veh KRTAP5-7 /// NADSYN1 (11734609_at) / RFU RASL12 (11751679_a_at) / Fold change /veh RASL12 (11751679_a_at) / RFU CDKN2B (11736163_a_at) / Fold change /veh CDKN2B (11736163_a_at) / RFU PRF1 (11729649_at) / Fold change /veh PRF1 (11729649_at) / RFU, ZNF638 /// ZNF638-IT1 / Fold change vs veh, ZNF638 /// ZNF638-IT1 / RFU, PANK3 / Fold change vs veh, PANK3 / RFU, SH3YL1 / Fold change vs veh, SH3YL1 / RFU, ZEB2 / Fold change vs veh, ZEB2 / RFU, NRIP1 / Fold change vs veh, NRIP1 / RFU, PTTG1IP / Fold change vs veh, PTTG1IP / RFU, CAPN2 / Fold change vs veh, CAPN2 / RFU, MED14 / Fold change vs veh, MED14 / RFU, SNORA58 / Fold change vs veh, SNORA58 / RFU, C1orf63 / Fold change vs veh, C1orf63 / RFU, LRRFIP1 / Fold change vs veh, LRRFIP1 / RFU, NDUFAF7 / Fold change vs veh, NDUFAF7 / RFU, SLC12A2 / Fold change vs veh, SLC12A2 / RFU, IBTK / Fold change vs veh, IBTK / RFU, ESF1 / Fold change vs veh, ESF1 / Fold change vs veh, TMEM50B / RFU, TAOK1 / Fold change vs veh, TAOK1 / RFU, ACBD3 / Fold change vs veh, ACBD3 / RFU, TMA16 / Fold change vs veh, TMA16 / RFU, RWDD3 / Fold change vs veh, RWDD3 / RFU, BCAT1 / Fold change vs veh, BCAT1 / RFU, EDEM3 / Fold change vs veh, EDEM3 / RFU, TMEM33 / Fold change vs veh, TMEM33 / RFU, WDR75 / Fold change vs veh, WDR75 / RFU, AHCTF1 / Fold change vs veh, AHCTF1 / RFU, TFRC / Fold change vs veh, TFRC / RFU, ZDHHC17 / Fold change vs veh, ZDHHC17 / RFU, NOM1 / Fold change vs veh, NOM1 / RFU, ARL8B / Fold change vs veh, ARL8B / RFU, ZBTB11 / Fold change vs veh, ZBTB11 / RFU, TAMM41 / Fold change vs veh, TAMM41 / RFU, KIAA1704 /// LOC100996395 / Fold change vs veh, KIAA1704 /// LOC100996395 / RFU, ING1 / Fold change vs veh, ING1 / RFU, TRMT61B / Fold change vs veh, TRMT61B / RFU, FUBP3 / Fold change vs veh, FUBP3 / RFU, TP53 / Fold change vs veh, TP53 / RFU, TNKS2 / Fold change vs veh, TNKS2 / RFU, ZFP14 / Fold change vs veh, ZFP14 / RFU, ACTR2 / Fold change vs veh, ACTR2 / RFU, PPP3R1 / Fold change vs veh, PPP3R1 / RFU, PIK3R1 / Fold change vs veh, PIK3R1 / RFU, HNRNPA1 / Fold change vs veh, HNRNPA1 / RFU, RNF170 / Fold change vs veh, RNF170 / RFU, ZNF28 / Fold change vs veh, ZNF28 / RFU, RNGTT / Fold change vs veh, RNGTT / RFU, OGT / Fold change vs veh, OGT / RFU, BRD1 / Fold change vs veh, BRD1 / RFU, MARS / Fold change vs veh, MARS / RFU, ZNF655 / Fold change vs veh, ZNF655 / RFU, FAHD1 / Fold change vs veh, FAHD1 / RFU, BDP1 / Fold change vs veh, BDP1 / RFU, LRRCC1 / Fold change vs veh, LRRCC1 / RFU, ARID1A / Fold change vs veh, ARID1A / RFU, ZNF146 / Fold change vs veh, ZNF146 / RFU, ZNF330 / Fold change vs veh, ZNF330 / RFU, GPN3 / Fold change vs veh, GPN3 / RFU, C9orf123 / Fold change vs veh, C9orf123 / RFU, N4BP2L2 / Fold change vs veh, N4BP2L2 / RFU, ARFIP1 / Fold change vs veh, ARFIP1 / RFU, FAM179B / Fold change vs veh, FAM179B / RFU, BCL10 / Fold change vs veh, BCL10 / RFU, UHRF1BP1L / Fold change vs veh, UHRF1BP1L / RFU, BET1 / Fold change vs veh, BET1 / RFU, CNOT2 / Fold change vs veh, CNOT2 / RFU, ZNF268 / Fold change vs veh, ZNF268 / Fold change vs veh, ZNF507 / RFU, DGCR2 / Fold change vs veh, DGCR2 / RFU, WDSUB1 / Fold change vs veh, WDSUB1 / Fold change vs veh, HSP90B1 /// MIR3652 / RFU, ADSS / Fold change vs veh, ADSS / RFU, GK / Fold change vs veh, GK / RFU, ZNF148 / Fold change vs veh, ZNF148 / RFU, TAF9 / Fold change vs veh, TAF9 / RFU, SLC1A5 / Fold change vs veh, SLC1A5 / RFU, SLMO2 / Fold change vs veh, SLMO2 / RFU, ABCC4 / Fold change vs veh, ABCC4 / RFU, LOC101060439 /// RAP1B / Fold change vs veh, LOC101060439 /// RAP1B / RFU, RFX7 / Fold change vs veh, RFX7 / RFU, GTPBP10 / Fold change vs veh, GTPBP10 / RFU, CNEP1R1 / Fold change vs veh, CNEP1R1 / RFU, BIVM-ERCC5 /// ERCC5 / Fold change vs veh, BIVM-ERCC5 /// ERCC5 / RFU, ILF3 / Fold change vs veh, ILF3 / RFU 11762660_at / Fold change /veh 11762660_at / RFU VCAN (11757783_s_at) / Fold change /veh VCAN (11757783_s_at) / RFU DDX43 (11728927_at) / Fold change /veh DDX43 (11728927_at) / RFU KRT8 (11758188_x_at) / Fold change /veh KRT8 (11758188_x_at) / RFU NKD1 (11759106_at) / Fold change /veh NKD1 (11759106_at) / RFU SRD5A1 (11742802_a_at) / Fold change /veh SRD5A1 (11742802_a_at) / RFU TPSAB1 /// TPSB2 (11721975_s_at) / Fold change /veh TPSAB1 /// TPSB2 (11721975_s_at) / RFU GSTM3 (11746129_a_at) / Fold change /veh GSTM3 (11746129_a_at) / RFU IL23R (11737362_x_at) / Fold change /veh IL23R (11737362_x_at) / RFU TMEM51 (11727254_a_at) / Fold change /veh TMEM51 (11727254_a_at) / RFU PIWIL2 (11732686_x_at) / Fold change /veh PIWIL2 (11732686_x_at) / RFU ORM1 (11744905_x_at) / Fold change /veh ORM1 (11744905_x_at) / RFU CCDC152 (11743942_at) / Fold change /veh CCDC152 (11743942_at) / RFU ECM1 (11717891_a_at) / Fold change /veh ECM1 (11717891_a_at) / RFU IL23R (11748794_a_at) / Fold change /veh IL23R (11748794_a_at) / RFU TNFAIP8L3 (11732012_x_at) / Fold change /veh TNFAIP8L3 (11732012_x_at) / RFU MBOAT4 (11741988_at) / Fold change /veh MBOAT4 (11741988_at) / RFU 11764193_at / Fold change /veh 11764193_at / RFU TMEM53 (11763286_at) / Fold change /veh TMEM53 (11763286_at) / RFU MAGEB2 (11727129_at) / Fold change /veh MAGEB2 (11727129_at) / RFU TMEM200A (11744735_a_at) / Fold change /veh TMEM200A (11744735_a_at) / RFU CCDC152 (11751479_a_at) / Fold change /veh CCDC152 (11751479_a_at) / RFU FAM211A (11726209_a_at) / Fold change /veh FAM211A (11726209_a_at) / RFU RGS16 (11746705_a_at) / Fold change /veh RGS16 (11746705_a_at) / RFU VCAN (11755009_s_at) / Fold change /veh VCAN (11755009_s_at) / RFU RHOB (11743442_s_at) / Fold change /veh RHOB (11743442_s_at) / RFU RGS16 (11720943_a_at) / Fold change /veh RGS16 (11720943_a_at) / RFU RGS16 (11720944_at) / Fold change /veh RGS16 (11720944_at) / RFU, VPS4B / Fold change vs veh, VPS4B / RFU, CREB1 / Fold change vs veh, CREB1 / RFU, DNAJC13 / Fold change vs veh, DNAJC13 / RFU, GNAQ / Fold change vs veh, GNAQ / RFU, CDK5R1 / Fold change vs veh, CDK5R1 / RFU, ZRANB3 / Fold change vs veh, ZRANB3 / RFU, CUL4A / Fold change vs veh, CUL4A / RFU, CCNY / Fold change vs veh, CCNY / RFU, UFL1 / Fold change vs veh, UFL1 / RFU, COG3 / Fold change vs veh, COG3 / RFU, DIAPH2 / Fold change vs veh, DIAPH2 / RFU, SKA2 / Fold change vs veh, SKA2 / RFU, AFF3 / Fold change vs veh, AFF3 / RFU, LMF1 / Fold change vs veh, LMF1 / RFU, IPO11 / Fold change vs veh, IPO11 / RFU, DFFB / Fold change vs veh, DFFB / RFU, FOXP1 / Fold change vs veh, FOXP1 / RFU, CARD8 / Fold change vs veh, CARD8 / RFU, STRN3 / Fold change vs veh, STRN3 / RFU, ADK / Fold change vs veh, ADK / RFU, RASSF2 / Fold change vs veh, RASSF2 / RFU, WIPF1 / Fold change vs veh, WIPF1 / RFU, LARP1B / Fold change vs veh, LARP1B / RFU, RASA1 / Fold change vs veh, RASA1 / RFU, RB1 / Fold change vs veh, RB1 / RFU, PPFIA1 / Fold change vs veh, PPFIA1 / RFU, MAT2A / Fold change vs veh, MAT2A / RFU, CCT5 / Fold change vs veh, CCT5 / RFU, WDR92 / Fold change vs veh, WDR92 / RFU, CUX1 / Fold change vs veh, CUX1 / RFU, TTC7A / Fold change vs veh, TTC7A / RFU, TMEM135 / Fold change vs veh, TMEM135 / RFU, DEPTOR / Fold change vs veh, DEPTOR / RFU, CPM / Fold change vs veh, CPM / RFU, DNAJB6 / Fold change vs veh, DNAJB6 / RFU, CACNA2D3 / Fold change vs veh, CACNA2D3 / RFU, DTX4 / Fold change vs veh, DTX4 / RFU, TFCP2 / Fold change vs veh, TFCP2 / RFU, GMCL1 /// GMCL1P1 / Fold change vs veh, GMCL1 /// GMCL1P1 / RFU, AEBP2 / Fold change vs veh, AEBP2 / RFU, SNHG1 /// SNORD22 /// SNORD25 /// SNORD26 /// SNORD27 /// SNORD28 /// SNORD29 /// SNORD31 / Fold change vs veh, SNHG1 /// SNORD22 /// SNORD25 /// SNORD26 /// SNORD27 /// SNORD28 /// SNORD29 /// SNORD31 / Fold change (Aza/veh), C12orf56 (ProbeSet 11735607_a_at) / Fold change (ACY-1035/veh), C12orf56 (ProbeSet 11735607_a_at) / Fold change (Aza/veh), FGFR1OP (ProbeSet 11751329_s_at) / Fold change (ACY-1035/veh), FGFR1OP (ProbeSet 11751329_s_at) / Fold change (Aza/veh), VPS36 (ProbeSet 11739960_a_at) / Fold change (ACY-1035/veh), VPS36 (ProbeSet 11739960_a_at) / RFU SYPL1 (11715823_x_at) / Fold change /veh SYPL1 (11715823_x_at) / RFU IGFBP7 (11715501_s_at) / Fold change /veh IGFBP7 (11715501_s_at) / RFU REEP3 (11722064_at) / Fold change /veh REEP3 (11722064_at) / RFU IGLL1 (11728026_x_at) / Fold change /veh IGLL1 (11728026_x_at): dose or concentration left out as unconfirmed", "settings": "ProbeSet 11718569_a_at; LIST D", "data": [{"smiles": "Nc1ncn([C@@H]2O[C@H](CO)[C@@H](O)[C@H]2O)c(=O)n1", "note": "[azacitidine]", "values": [{"measurement": "Fold change vs veh, WIPF1", "value": 0.72}]}]}
